Results published in patent US9498420B2, “Cosmetic compositions and methods for inhibiting melanin synthesis” (The Procter & Gamble Company, priority 2013, dated 2016).

System: B16-F1 mouse melanoma cells
Assay: Melanin Synthesis Assay
Type: cell-based
Experimental: A B16-F1 mouse melanoma cell line may be employed as an assay to measure melanin synthesis. The B16-F1 cells may be obtained from […], Virginia, USA. The cell culture medium that may be used in the assay may comprise 500 mL of Dulbecco's Modified Eagle's Medium (DMEM), 50 mL Fetal Bovine Serum (FBS), and 5 mL of penicillin-streptomycin liquid. B16-F1 cells that are cultured in this medium and grown to greater than 90% confluency synthesize melanin. While not intending to be bound by any theory, it is hypothesized that melanin synthesis is stimulated by the culture medium and/or stress induced by growth to a high confluency. The DMEM and FBS can be obtained from […] and the penicillin-streptomycin liquid can be obtained from Invitrogen, Inc., California, USA. Equipment used in the assay include a CO2 incubator, such as a Forma Series Model 3110 by Therma Scientific, Massachusetts, USA; a hemocytometer, such as a Bright Line model by Hauser Scientific, Pennsylvania, USA; and a UV-Visible Spectrum Plate Reader, such as a SpectraMax250 from Molecular Devices, California, USA. The assay steps may include: Day 0—Cell Growth: Warm the cell culture medium to 37° C. and place 29 mL into a T-150 flask. Add approximately 1×10^6 of B16-F1 passage 1 mouse cells to the T-150 flask and incubate for 3 days at 37° C., 5% CO2, 90% relative humidity, until ˜80% confluency; Day 3—Initiate a 96 Well Plate: At day 3, trypsinize the cells from the T-150 flask and determine the concentration of cells using a hemocytometer. Initiate a 96 well plate with 2,500 cells per well in 100 microliters of cell culture medium. […] Read the 96 well plate using the UV-Vis Plate Reader at 410 nm to optically measure the amount of melanin produced between wells that are treated with [test compound] and control wells that are not treated with a test compound. […] Percentage of melanin synthesis inhibition is calculated by the following equation: [formula] Where OD410 is the Optical Density at 410 nm as measured by the UV-Vis Spectrum Plate Reader. […]

Row | SMILES | reduction in the production of melanin as compared to Sample 4 (HD/UP/Nia) (Table 1 concentrations, B16-F1 mouse melanoma cells, statistical comparison) | Average Melanin % Inhibition (Table 2, B16-F1 cells, where present: 0.03% batyl alcohol, 0.003% bisabolol, 0.0005% hexyldecanol, 0.0001% undecylenoyl phenylalanine, 0.0005% niacinamide) | reduction in the production of melanin as compared to Sample 9 (HD/UP/Nia) (Table 2 concentrations, mouse melanoma cells, statistical comparison)
1 | CC(C)=CCC[C@](C)(O)[C@@H]1CC=C(C)CC1 [Sample 1, bisabolol] | did not significantly reduce |  | 
2 | CCCCCCCCCCCCCCCCCCOCC(O)CO (stereo not drawn) [Sample 8, batyl alcohol] |  | 7% | did not significantly reduce
